Assays:
[1] = biological target: T1, HCV polymerase (NS5B) type 1a (Hepatitis C virus genotype 1a, UniProt P26664); test: Assay of enzyme (HCV polymerase) inhibitory activity, type 1a enzyme; assay type: biochemical, HCV type 1a (cloned from the blood of patients); details: HCV polymerase inhibitory activity IC50, 1a, type 1a enzyme
T1 construct: made in house; host or cells: Escherichia coli (by the 'similar method' of the 1b enzyme)
Outline: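 NS5B Δ47 C-term His6 (type 1a, 1.5 μg/ml); substrate RNA 5 μg/ml; ATP/GTP/CTP 50 μM, UTP 2 μM + [5,6-3H]UTP; Tris pH 7.5, MgCl2 5 mM; 25° C, 60 min. TCA/pyrophosphate stop, GF/B filter, scintillation. IC50 vs no-compound control.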

[2] = biological target: T2, HCV polymerase (NS5B) type 1b (Hepatitis C virus genotype 1b, UniProt P26663); test: Assay of enzyme (HCV polymerase) inhibitory activity, type 1b enzyme; assay type: biochemical, HCV BK strain (type 1b); details: HCV polymerase inhibitory activity IC50, 1b, type 1b enzyme
T2 construct: a region encoding NS5B (J Virol 1991 March, 65(3), 1105-13, 544 amino acids after deletion of 47 amino acids on the C-terminal); 6xHis (C); made in house; host or cells: Escherichia coli
Outline: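 Rxn: NS5B 1b (BK, ΔC47, His6) 0.5 μg/ml; substrate RNA 5 μg/ml; ATP/GTP/CTP 50 μM, UTP 2 μM + [5,6-3H]UTP; 20 mM Tris pH 7.5, 5 mM MgCl2, 50 mM NaCl, 1 mM EDTA/DTT. 25 °C, 60 min. Stop with TCA/pyrophosphate, filter, scintillation count; IC50 vs. untreated.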

Compound | IC50 [1] [nM] | IC50 [2] [nM]
O=C(NCc1ccc(OC(F)(F)F)cc1)[C@H]1CN(c2nc3nc(C(F)(F)F)ncc3s2)CCN1S(=O)(=O)c1ccc(C2CC2)cc1 [Example 1100, (R)-4-(5-trifluoromethyl-thiazolo[4,5-d]pyrimidin-2-yl)-1-(4-cyclopropyl-benzenesulfonyl)-piperazine-2-carboxylic acid 4-trifluoromethoxy-benzylamide] | < 100 | < 100
O=C(NCc1ccc(OC(F)(F)F)c(F)c1)[C@H]1CN(c2nc3nc(C4CC4)ncc3s2)CCN1S(=O)(=O)c1ccc(C(F)(F)F)cc1 [Example 1101, (R)-4-(5-cyclopropyl-thiazolo[4,5-d]pyrimidin-2-yl)-1-(4-trifluoromethyl-benzenesulfonyl)-piperazine-2-carboxylic acid 3-fluoro-4-trifluoromethoxy-benzylamide] | < 100 | < 100
O=C(NCc1ccc(OC(F)(F)F)c(F)c1)[C@H]1CN(c2nc3nc(C4CC4)ncc3s2)CCN1S(=O)(=O)c1ccc(OC(F)(F)F)cc1 [Example 1102, (R)-4-(5-cyclopropyl-thiazolo[4,5-d]pyrimidin-2-yl)-1-(4-trifluoromethoxy-benzenesulfonyl)-piperazine-2-carboxylic acid 3-fluoro-4-trifluoromethoxy-benzylamide] | < 100 | < 100
CC(=O)N1CCN(S(=O)(=O)c2ccc(OC(F)(F)F)cc2)[C@@H](C(=O)NCc2ccc(OC(F)(F)F)c(F)c2)C1 [Example 1103, (R)-4-acetyl-1-(4-trifluoromethoxy-benzenesulfonyl)-piperazine-2-carboxylic acid 3-fluoro-4-trifluoromethoxy-benzylamide] | 100 to 1000 | 100 to 1000
O=C(O)c1cncc2sc(N3CCN(S(=O)(=O)c4ccc(OC(F)(F)F)cc4)[C@@H](C(=O)NCc4ccc(OC(F)(F)F)cc4)C3)nc12 [Example 1104, 2-[(R)-4-(4-trifluoromethoxy-benzenesulfonyl)-3-(4-trifluoromethoxy-benzylcarbamoyl)-piperazin-1-yl]-thiazolo[5,4-c]pyridine-7-carboxylic acid] | < 100 | < 100
O=C(NCc1ccc(OC(F)(F)F)cc1)[C@H]1CN(c2nn3c(CO)cc(=O)nc3s2)CCN1S(=O)(=O)c1ccc(OC(F)(F)F)cc1 [Example 1105] | 100 to 1000 | < 100
O=C(O)Cn1ncc2sc(N3CCN(S(=O)(=O)c4ccc(OC(F)(F)F)cc4)[C@@H](C(=O)NCc4ccc(OC(F)(F)F)cc4)C3)nc2c1=O [Example 1106, {4-oxo-2-[(R)-4-(4-trifluoromethoxy-benzenesulfonyl)-3-(4-trifluoromethoxy-benzylcarbamoyl)-piperazin-1-yl]-4H-thiazolo[4,5-d]pyridazin-5-yl}-acetic acid] | < 100 | < 100
O=C(NCc1ccc(OC(F)(F)F)cc1)[C@H]1CN(c2nc3nc(C4CC4)[nH]c(=O)c3s2)CCN1S(=O)(=O)c1ccc(C(F)(F)F)cc1 [Example 1107, (R)-4-(5-cyclopropyl-7-oxo-6,7-dihydro-thiazolo[4,5-d]pyrimidin-2-yl)-1-(4-trifluoromethyl-benzenesulfonyl)-piperazine-2-carboxylic acid 4-trifluoromethoxy-benzylamide] | 100 to 1000 | < 100
O=C(NCc1ccc(OC(F)(F)F)cc1)[C@H]1CN(c2nc3nc(C4CC4)[nH]c(=O)c3s2)CCN1S(=O)(=O)c1ccc(OC(F)(F)F)cc1 [Example 1108, (R)-4-(5-cyclopropyl-7-oxo-6,7-dihydro-thiazolo[4,5-d]pyrimidin-2-yl)-1-(4-trifluoromethoxy-benzenesulfonyl)-piperazine-2-carboxylic acid 4-trifluoromethoxy-benzylamide] | 100 to 1000 | < 100
O=C(O)c1cncc2sc(N3CCN(S(=O)(=O)c4ccc(OC(F)(F)F)cc4)[C@@H](C(=O)NCc4ccc(OC(F)F)c(F)c4)C3)nc12 [Example 1109, 2-[(R)-3-(4-difluoromethoxy-3-fluoro-benzylcarbamoyl)-4-(4-trifluoromethoxy-benzenesulfonyl)-piperazin-1-yl]-thiazolo[5,4-c]pyridine-7-carboxylic acid] | < 100 | < 100
O=C(NCc1ccc(OC(F)(F)F)cc1)[C@H]1CN(c2nc3nc(C4CC4)ncc3s2)CCN1S(=O)(=O)c1ccc(OC(F)(F)F)cc1F [Example 1110, (R)-4-(5-cyclopropyl-thiazolo[4,5-d]pyrimidin-2-yl)-1-(2-fluoro-4-trifluoromethoxy-benzenesulfonyl)-piperazine-2-carboxylic acid 4-trifluoromethoxy-benzylamide] | < 100 | < 100
O=C(O)c1cnc(N2CCN(S(=O)(=O)c3ccc(OC(F)(F)F)cc3)[C@@H](C(=O)NCc3ccc(OC(F)F)c(F)c3)C2)cn1 [Example 1111, (R)-3-(4-difluoromethoxy-3-fluoro-benzylcarbamoyl)-4-(4-trifluoromethoxy-benzenesulfonyl)-3,4,5,6-tetrahydro-2H-[1,2′]bipyrazinyl-5′-carboxylic acid] | < 100 | < 100
O=C(O)CCn1ncc2sc(N3CCN(S(=O)(=O)c4ccc(OC(F)(F)F)cc4)[C@@H](C(=O)NCc4ccc(OC(F)(F)F)cc4)C3)nc2c1=O [Example 1112, 3-{4-oxo-2-[(R)-4-(4-trifluoromethoxy-benzenesulfonyl)-3-(4-trifluoromethoxy-benzylcarbamoyl)-piperazin-1-yl]-4H-thiazolo[4,5-d]pyridazin-5-yl}propionic acid] | < 100 | < 100
O=C(NCc1ccc(OC(F)F)c(F)c1)[C@H]1CN(c2nc3nc(C4CC4)[nH]c(=O)c3s2)CCN1S(=O)(=O)c1ccc(OC(F)(F)F)cc1 [Example 1113, (R)-4-(5-cyclopropyl-7-oxo-6,7-dihydro-thiazolo[4,5-d]pyrimidin-2-yl)-1-(4-trifluoromethoxy-benzenesulfonyl)-piperazine-2-carboxylic acid 4-difluoromethoxy-3-fluoro-benzylamide] | < 100 | < 100
O=C(NCc1ccc(OC(F)F)c(F)c1)[C@H]1CN(c2nc3nc(C4CC4)[nH]c(=O)c3s2)CCN1S(=O)(=O)c1ccc(C(F)(F)F)cc1 [Example 1114, (R)-4-(5-cyclopropyl-7-oxo-6,7-dihydro-thiazolo[4,5-d]pyrimidin-2-yl)-1-(4-trifluoromethyl-benzenesulfonyl)-piperazine-2-carboxylic acid 4-difluoromethoxy-3-fluoro-benzylamide] | < 100 | < 100
CC(=O)N1CCN(S(=O)(=O)c2ccc(C(C)C)cc2)C(C(=O)NCc2ccc(C(F)(F)F)cc2)C1 (stereo not drawn) [Example 1115, 4-acetyl-1-(4-isopropyl-benzenesulfonyl)-piperazine-2-carboxylic acid 4-trifluoromethyl-benzylamide] | 100 to 1000 | > 1000
CC(=O)N1CCN(S(=O)(=O)c2ccc(C(C)C)cc2)[C@@H](C(=O)NCc2ccc(C(F)(F)F)cc2)C1 [Example 1116, (R)-4-acetyl-1-(4-isopropyl-benzenesulfonyl)-piperazine-2-carboxylic acid 4-trifluoromethyl-benzylamide] | 100 to 1000 | 100 to 1000
CC(=O)N1CCN(S(=O)(=O)c2ccc(C(C)C)cc2)[C@H](C(=O)NCc2ccc(C(F)(F)F)cc2)C1 [Example 1117, (S)-4-acetyl-1-(4-isopropyl-benzenesulfonyl)-piperazine-2-carboxylic acid 4-trifluoromethyl-benzylamide] | > 1000 | > 1000
O=C(O)Cn1ncc2sc(N3CCN(S(=O)(=O)c4ccc(OC(F)(F)F)cc4)[C@@H](C(=O)NCc4ccc(OC(F)F)c(F)c4)C3)nc2c1=O [Example 1121] | < 100 | < 100
O=C(O)c1cnc(N2CCN(S(=O)(=O)c3ccc(C(F)(F)F)cc3)[C@@H](C(=O)NCc3ccc(OC(F)F)c(F)c3)C2)cn1 [Example 1122] | < 100 | < 100
NC(=O)c1cncc2sc(N3CCN(S(=O)(=O)c4ccc(OC(F)(F)F)cc4)[C@@H](C(=O)NCc4ccc(OC(F)(F)F)cc4)C3)nc12 [Example 1123] | < 100 | < 100

From patent publication US8017612B2, “Piperazine compound and use thereof as a HCV polymerase inhibitor” (priority 2006, dated 2011)
